Consider seven compounds from patent publication US7910568B2, “Derivatives of 4- or 5-aminosalicylic acid” (Antibe Therapeutics Inc., priority 2005, dated 2011).

Data set [1] deals with leukocyte adherence to the vascular endothelium. Put plainly: Aspirin-induced leukocyte adherence to the vascular endothelium, intravital microscopy of mesenteric venules. The class given is in vivo, rat. As for the experimental part:
Leukocyte adherence was studied using intravital microscopy, as described in detail previously (Wallace et al., (1993) Am. J. Physiol. 265: 993-998, incorporated hereto by reference). Rats were anesthetized with pentobarbital sodium (60 mg/kg i.p.) and cautery incisions were made along the abdominal region. A tracheotomy was performed to facilitate breathing. The rats were placed in a supine position, and a segment of the mesentery was exteriorized through the abdominal incision. The mesentery was carefully placed over an optically clear viewing pedestal that allowed for trans-illumination of a 2-cm^2 segment of tissue. All exposed tissue was covered with saline-soaked gauze to minimize dehydration. The temperature of the pedestal was kept at 37° C. and the mesentery was superfused with warmed bicarbonate-buffered saline (pH 7.4). An intravital microscope (Nikon L25/0.35) and a ×10 eyepiece were used to observe the mesenteric microcirculation. Post-capillary venules with diameters ranging from 20 to 40 μm were selected for the study. A video camera mounted on the microscope (Panasonic™ digital 5000) projected the image onto a monitor, and the images were recorded for playback analysis using a videocassette recorder. Images of the mesenteric microcirculation were recorded 5 minutes prior to aspirin administration (baseline), at the time of aspirin administration (time 0-5) and every 15 minutes for 60 minutes. Leukocyte adherence was blindly quantified from videotaped images of the vessels made over 5-min periods as the number of leukocytes that remained stationary along the vessel wall for 30 s or more (expressed per 100 μm venule length). Groups of rats (at least 5 in each) were pretreated with Compound XXXV (130 mg/kg), Compound XXVII (100 mg/kg), mesalamine (50 mg/kg), or vehicle 60 min prior to aspirin (or vehicle) administration. These drugs were given intragastrically. In some experiments, rats were treated with glibenclamide (10 mg/kg i.p.) or vehicle 30 min prior to administration of these compounds.

In another data set the test system is thoracic aorta rings. Nature of the data set: Vasorelaxant effect on phenylephrine-precontracted thoracic aorta rings. More on the design: species or system CD-1 mice. The note with it: cumulative 10 nM-3 mM on PE (1 μM) precontracted rings with endothelium; FIG. 22. As for the experimental part:
CD-1 mice were sacrificed and thoracic aorta was rapidly dissected and cleaned from fat and connective tissue. […] Changes in isometric tension were recorded with PowerLab™ data acquisition system (Ugo Basile, Italy). […] Rings were initially stretched until a resting tension of 1.5 g was reached and allowed to equilibrate for at least 40 minutes during which tension was adjusted, when necessary, to 1.5 g and bathing solution was periodically changed.
Vehicle represents buffer but no compound. Curves to tested compounds were constructed in presence of endothelium.
Data obtained are shown in FIG. 22 and are expressed as mean±SEM. The level of statistical significance was determined by 2-way analysis of variance (ANOVA) followed by Bonferroni's test for multiple comparison, using the GraphPad™ software.

In data set [2] the test system is visceral pain perception in response to colorectal distension. Nature of the data set: Rat model of visceral pain perception, colorectal distension, abdominal withdrawal reflex score. The class given is in vivo. The note with it: for Pain perception score after glibenclamide pretreatment: glibenclamide 10 mg/kg i.p. 30 min before. As for the experimental part:
A rat model of visceral pain perception, a pre-clinical model of irritable bowel syndrome, was used in the following example. Rats (male, Wistar, 200-250 g, obtained from Charles River, Monza, Italy), were housed in plastic cages and maintained under controlled conditions with 12-hours light/dark cycle with lights on at 7.00 AM. Tap water and standard laboratory chow were freely available. Before experiments, rats were individually trained by spending 2-3 hours per day in a plexiglass cage for 2-3 days. It allowed them to adjust to a movement-restriction environment. Food was withheld for 12 hours before colorectal distension (CRD) recording were performed. Experiments were performed in awake rats and were conducted in a blind manner in that the observer was not aware of the identity of drug administered to each animal.
In the testing day, rats were sedated with ether inhalation and a 2 cm long latex balloon was inserted intrarectally 2 cm from the anal verge and fixed at the base of the tail. The balloon was connected via a double-barreled cannula to a pressure transducer to continuously monitoring the rectal pressure by a computer (PowerLab PC, A.D. Instruments, Milford, Mass., USA) and to a syringe for inflation/deflation of the balloon. The rats were then housed in a small cage (20×8×8 cm) on an elevated Plexiglas™ platform and allowed to wake up and adapt for 1 hour. After recovery from sedation, animals underwent the CRD procedure and behavioral responses were tested. The night before the experiments, the balloons were inflated and left overnight so the latex stretched and the balloons became compliant.
CRD of 20 seconds, performed every 5 minutes, was applied in increment of 0.4 ml starting from 0.4 ml up to 1.6 ml water. To achieve an accurate measurement of the colonic parameters and perception, the distensions were repeated twice for each intensity and data for each animal were averaged for analysis. Each animal underwent a double set of CRD. Twenty minutes after the first sequence of CRD (0.4 mL-1.6 ml water), drugs were administered intraperitoneally (i.p.) and a second set of CRD was performed. Behavioral responses during the first and the second set of CRD were assessed and compared.
Behavioral response to CRD was assessed by measuring the abdominal withdrawal reflex (AWR) using a semiquantitative score (1).
The effects of mesalamine and Compound XXXV on colonic compliance and sensitivity were determined using a total of 8 fasting rats. To investigate whether the administration of mesalamine and Compound XXXV could revert pain induced by CRD, after the first sequence of CRD, […], after which a second set of CRD was repeated.
All data are presented as the mean±SEM, with sample sizes of 4 rats/group; statistical comparison of paired data was performed by the Wilcoxon signed rank test. An associated probability (p value) of less that 5% was considered significant.

A short description of data set [3]: H2S generation in buffer, liver homogenate and liver homogenate with PAG, sulfide sensitive electrode. In kind it is in vitro ADME, rat. Particulars: 1 mM compound, FIG. 21; for H2S release in buffer: potassium phosphate buffer pH 7.4, 37° C.; for Effect of PAG (DL-propargylglycine) on H2S generation in liver homogenate: PAG 2 mM, inhibitor of cystathionine γ-lyase.

In another data set the test system is TNBS-induced colitis. Put plainly: TNBS-induced colitis in mice, disease activity score. The class given is in vivo. The note with it: Compound XXVII 100 mg/kg vs mesalamine 50 mg/kg, 4-HTB 50 mg/kg and their mixture; FIG. 5. As for the experimental part: (§1) A standard experimental animal model of colitis induced by intracolonic administration of 2,4,6-trinitrobenzene sulfonic acid (TNBS) to mice is used in the following example. A detailed description of this model has been published (Santucci et al. (2003) Gastroenterology 124:1381-94) and is incorporated herein by reference. Briefly, 6-8 week old Balb/c mice were given TNBS intracolonically at a dose of 1.5 mg in 0.1 mL of 30% ethanol. The mice were randomized to the various treatment groups (n=6 per group). Beginning one hour later and continuing every 12 h for 5 days, the mice were treated orally with vehicle (1% carboxymethylcellulose (CMC)), 5-ASA (mesalamine) (25, 50 or 75 mg/kg) or with equimolar doses of 2-hydroxy-5-amino-benzoic acid 4-(thioxo-5H-[1,2]dithiol-3-yl)-phenyl ester hydrochloride (Compound XXXV) (130 mg/kg), or with […] (100 mg/kg), 50% (66 mg/kg) and 25% (33 mg/kg) of that dose. The mice were evaluated (blindly) on the final day of the study for the presence of diarrhea and fecal occult blood, and their body weights were measured. […] After sacrifice, a sample of the colon was excised for measurement of myeloperoxidase (MPO) activity, as a marker of granulocyte infiltration. All results were compared to those obtained with healthy mice as well.

The test system of data set [4] is myeloperoxidase (MPO) activity. Put plainly: TNBS-induced colitis in mice, colonic myeloperoxidase (MPO) activity as marker of granulocyte infiltration. In kind it is in vivo. Particulars: Compound XXVII 100 mg/kg; FIG. 6. As for the experimental part: as §1
Data set [5] is described as follows: Viability of HT-29 human colon cancer cells, MTT assay. The class given is cell-based. The note with it: HT-29 colon cancer cells, 72 h exposure, HT-29, MTT, read-out: Cell viability rate as a percent of the vehicle (DMSO)-treated cells. As for the experimental part:
HT-29 cells were grown in culture using standard methods. The cells were exposed to vehicle (DMSO), mesalamine or Compound XXXV. Concentrations ranging from 0.1 to 10 μM were tested, with each concentration tested in 6 wells. At the end of 72 h of exposure to the test drugs, cell viability was measured using the MTT [3-(4,5-dimethylthiaxol-2-yl)-2,5-diphenyltetrazolium bromide] assay (Carmichael et al. (1978) Cancer Res. 47, 936-942), incorporated herein by reference.
A general note: Tetrazolium dyes change colour on reduction, which living cells bring about.

The conditions of data set [6]: after patients have taken the usual doses; Dig. Dis. Sci. 1989; 34: 573-578; cited from earlier work.
Setting [7] is: equimolar doses: mesalamine 50 mg/kg, Compound XXXV 130 mg/kg, ADT-OH 80 mg/kg, Compound XXVII 100 mg/kg, 4-HTB 50 mg/kg, vs vehicle.
[8] abbreviates: 0.8 mL colorectal distention, 100 mg/kg, FIG. 17.

For `COc1ccc(Cl)cc1C(=O)NCCc1ccc(S(=O)(=O)NC(=O)NC2CCCCC2)cc1` [Glibenclamide, glibenclamide, reference compound], in data set [1] (glibenclamide alone, 10 mg/kg i.p.), the “Leukocyte adherence without aspirin” value is “did not affect leukocyte adherence”. In data set [1] (intragastric pretreatment 60 min prior to aspirin (XXXV 130 mg/kg, mesalamine 50 mg/kg), glibenclamide 10 mg/kg i.p., FIG. 19), the Aspirin-induced leukocyte adherence entry is “did not affect the magnitude of aspirin-induced leukocyte adherence”.

Turning to `CC(=N)S` [thioacetamide], the “Vasorelaxant effect (% relaxation), concentration dependent, compared to vehicle” value with thoracic aorta rings was “significant vasorelaxant effects”.

For the compound `Oc1ccc(-c2cc(=S)ss2)cc1` [ADT-OH, 5-p-hydroxyphenyl-1,2-dithione-3-thione, reference compound], the Pain perception score result in data set [2] (setting [7]) was “Only Compound XXXV and Compound XXVII significantly reduced pain perception”. Besides, the “H2S release in buffer” value in data set [3] is recorded as “did not release significant H2S”.

Take `N[C@@H](CS)C(=O)O` [L-cysteine, reference compound]: in data set [3], the “Effect of PAG (DL-propargylglycine) on H2S generation in liver homogenate” value is on record as “markedly inhibited” and the “H2S release in buffer” value is reported as “did not release significant H2S”.

As for `NC(=S)c1ccc(OC(=O)c2cc(N)ccc2O)cc1` [Compound XXVII, 5-Amino-2-hydroxy-benzoic acid 4-thiocarbamoyl-phenyl ester], the “Aspirin-induced leukocyte adherence, final time period” value in data set [1] (minutes 60-65, XXXV 130 mg/kg, XXVII 100 mg/kg intragastric, FIG. 20) is listed as “suppress aspirin-induced leukocyte adherence”. Besides, the “Aspirin-induced leukocyte adherence, final time period, after glibenclamide pretreatment” value in data set [1] (minutes 60-65, glibenclamide 10 mg/kg i.p., FIG. 20) was “reverse this inhibitor effect”. In addition, the “Disease Activity Index” value with TNBS-induced colitis is “almost three times as effective as either mesalamine alone, 4-HTB alone or a mixture of mesalamine and 4-HTB”. Moreover, in data set [2] (setting [8]), the “Pain perception score after glibenclamide pretreatment” value was “reversed by pretreatment with glibenclamide” and the Pain perception score entry was “significantly reduced the pain perception”. Also, the Pain perception score entry in data set [2] (setting [7]) is “significantly reduced pain perception”. Further, the “MPO activity (granulocyte infiltration)” value in data set [4] was “significantly reduced inflammation”. In addition, in data set [3], the “Effect of PAG (DL-propargylglycine) on H2S generation in liver homogenate” value is “lack of effect” and the “H2S release in buffer” value is listed as “release H2S spontaneously (in buffer)”. Also, in data set [3] (rat liver homogenate 10% (wt/vol)), the “H2S release in liver homogenate compared with buffer” value is recorded as “greater when in the presence of tissue”.

In the case of `NC(=S)c1ccc(O)cc1` [Compound 4-HTB, 4-hydroxythiobenzamide, reference compound], the Pain perception score result in data set [2] (setting [7]) is “Only Compound XXXV and Compound XXVII significantly reduced pain perception”. The “Vasorelaxant effect (% relaxation), concentration dependent, compared to vehicle” value with thoracic aorta rings is listed as “significant vasorelaxant effects”. Moreover, the “H2S release in buffer” value in data set [3] is “did not release significant H2S”.

Broadly, the viability is a read-out of living cells in per cent, often relative to untreated cells. `Nc1ccc(O)c(C(=O)O)c1` [Mesalamine, 5-aminosalicylic acid]: in data set [1] (glibenclamide 10 mg/kg i.p. 30 min prior to the compound, FIG. 19), the “Aspirin-induced leukocyte adherence after glibenclamide pretreatment” value was “no effect”. In addition, in data set [2] (setting [8]), the “Pain perception score after glibenclamide pretreatment” value was “did not affect the pain perception” and the Pain perception score entry was “no significant effect”. In addition, the Pain perception score entry in data set [2] (setting [7]) is “Only Compound XXXV and Compound XXVII significantly reduced pain perception”. For the same compound, the viability at 72 h, 0.1 µM in data set [5] (0.1 μM) was determined as 104 ± 2.5%. Moreover, in data set [5] (1 μM), the viability at 72 h, 1 µM was determined as 101 ± 3.5%. Further, in data set [5] (10 μM), the viability at 72 h, 10 µM turned out to be 91.1 ± 3.2%. Moreover, in data set [6], the “Concentration in the colonic lumen” value is given as “up to 5 mM”.
